Reference: US20240116985A1, “STAPLED PEPTIDES AND METHODS THEREOF” (priority 2020, published 2024)
Converted amounts (≈) assume the structure as drawn. Where two headings read alike, the source gives them in different places.

How the values were obtained:
CHI Log D procedure = assay type: physicochemical
Solubility in PBS = assay type: physicochemical
How it was run: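 PBS sample ultracentrifuged; supernatant run on HPLC vs. 50 μM peptide in DMSO standard. Solubility = (PBS peak area / DMSO peak area) × 50 uM.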

[1] = target: T1, beta-catenin/TCF4 engagement (Homo sapiens, UniProt P35222); experiment: Nano-BRET target engagement assay (B-cat-Halo & TCF4-Luc in HEK293 cells); assay type: cell-based; details: for IC50: read-out: NanoBRET Abs IC50
T1 construct: expressed in transfected cells; host or cells: HEK293
T1 sequence (P35222 1-781): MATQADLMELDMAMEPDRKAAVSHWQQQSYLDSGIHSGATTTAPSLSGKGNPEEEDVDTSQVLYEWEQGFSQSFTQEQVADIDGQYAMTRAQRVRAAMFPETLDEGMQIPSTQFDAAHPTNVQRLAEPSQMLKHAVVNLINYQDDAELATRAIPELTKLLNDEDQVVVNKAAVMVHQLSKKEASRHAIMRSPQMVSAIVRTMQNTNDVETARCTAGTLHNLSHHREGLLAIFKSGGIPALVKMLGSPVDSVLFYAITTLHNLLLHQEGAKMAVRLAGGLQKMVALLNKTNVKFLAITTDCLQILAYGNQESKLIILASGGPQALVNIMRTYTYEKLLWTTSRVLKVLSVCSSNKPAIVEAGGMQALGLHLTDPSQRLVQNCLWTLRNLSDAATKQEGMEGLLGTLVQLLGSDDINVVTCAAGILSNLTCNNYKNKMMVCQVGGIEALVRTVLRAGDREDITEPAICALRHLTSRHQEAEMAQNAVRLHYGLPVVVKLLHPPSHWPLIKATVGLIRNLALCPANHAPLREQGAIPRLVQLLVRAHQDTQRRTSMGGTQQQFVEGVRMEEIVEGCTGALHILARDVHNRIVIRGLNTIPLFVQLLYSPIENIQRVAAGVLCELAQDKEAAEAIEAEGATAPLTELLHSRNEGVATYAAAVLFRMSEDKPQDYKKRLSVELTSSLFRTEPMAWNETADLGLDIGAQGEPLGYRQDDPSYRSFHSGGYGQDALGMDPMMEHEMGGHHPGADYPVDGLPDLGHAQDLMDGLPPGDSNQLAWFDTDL

[2] = target: T2, full-length beta-Catenin (Uniprot ID P35222) (Homo sapiens, UniProt P35222); experiment: Fluorescence polarization IC50 (beta-catenin / 5FAM-TCF4 10-53 competition); assay type: binding
T2 construct: 10 nM full-length beta-Catenin (Uniprot ID P35222)
T2 sequence (P35222 1-781): T1 sequence (P35222 1-781)

Row | SMILES | CHI Log D (CHI Log D procedure; pH 7.4) | Solubility (Solubility in PBS) [µM] | IC50 ([1]; absolute IC50) [µM] | IC50 ([2]; fluorescence polarization, read-out: beta-Catenin FP IC50) [nM] | IC50 ([2]; read-out: FP EC50) [nM] | IC50 [1] [µM] | IC50 ([2]; read-out: beta-Catenin FP IC50) [nM] | chromatographic logD (CHI Log D procedure; pH 7.4, CHI Log D) | Solubility (Solubility in PBS; Solubility (uM)) [µM] | inhibition at 10 µM ([1]; HEK293, 10 uM, read-out: NanoBRET % inh @ 10 uM) [%] | IC50 ([2]; fluorescence polarization, beta-catenin, read-out: FP EC50) [nM] | chromatographic logD (CHI Log D procedure; pH 7.4)
1 | CC(=O)N1CCC[C@]12CC=CCCCC1(CCCC=CCCCCCC[C@@](C)(C(=O)N[C@@H](Cc3ccccc3)C(=O)N[C@@H](Cc3csc4ccccc34)C(=O)N[C@H](C(N)=O)[C@@H](C)O)NC(=O)[C@H](CC(N)=O)NC(=O)[C@H](Cc3ccccc3)NC(=O)[C@H](C)NC(=O)[C@H](C)NC(=O)[C@H](CCC(=O)O)NC(=O)[C@H](CC(=O)O)NC1=O)NC(=O)[C@H](CC(C)C)NC(=O)[C@H](CC(=O)O)NC2=O (stereo partly drawn) [I-749, Ac-PL3-Asp-Leu-B5-Asp-Glu-Ala-Ala-Phe-Asn-S8-Phe-BztA-Thr-NH2] | 2.472 | 45 (≈ 82.9 µg/mL) | 9 | 40 | 40 | – | – | – | – | – | – | –
2 | CC(=O)N1CCC[C@]12CC=CCCCC1(CCCC=CCCCOC(=O)N3CC[C@@](C(=O)N[C@@H](Cc4ccsc4)C(=O)N[C@@H](Cc4csc5ccccc45)C(=O)N[C@@H](CCC(N)=O)C(=O)N[C@@H](CCCCNC(=O)C(C)(c4ccccc4)c4ccccc4)C(N)=O)(C3)NC(=O)[C@H](CC(N)=O)NC(=O)[C@H](Cc3ccccc3)NC(=O)[C@H](C)NC(=O)[C@H](C)NC(=O)[C@H](CC(=O)O)NC(=O)[C@H](CC(=O)O)NC1=O)NC(=O)[C@H](CC(C)(C)C)NC(=O)[C@H](CC(=O)O)NC2=O (stereo partly drawn) [I-904, Ac-PL3-Asp-Npg-B5-Asp-Asp-Ala-Ala-Phe-Asn-PyrS2-3Thi-BztA-Gln-[22PhPr]Lys-NH2] | – | 30 (≈ 67.6 µg/mL) | – | – | – | 20 | 54 | – | – | – | – | 2.65

Further lines, with some results ahead:

Row | CHI Log D (CHI Log D procedure; pH 7.4) | Solubility (Solubility in PBS) [µM] | IC50 ([1]; absolute IC50) [µM] | IC50 ([2]; fluorescence polarization, read-out: beta-Catenin FP IC50) [nM] | IC50 ([2]; read-out: FP EC50) [nM] | IC50 [1] [µM] | IC50 ([2]; read-out: beta-Catenin FP IC50) [nM] | chromatographic logD (CHI Log D procedure; pH 7.4, CHI Log D) | Solubility (Solubility in PBS; Solubility (uM)) [µM] | inhibition at 10 µM ([1]; HEK293, 10 uM, read-out: NanoBRET % inh @ 10 uM) [%] | IC50 ([2]; fluorescence polarization, beta-catenin, read-out: FP EC50) [nM] | SMILES | chromatographic logD (CHI Log D procedure; pH 7.4)
3 | – | – | – | – | – | > 20 | 20 | 1.96 | 33 (≈ 63 µg/mL) | – | – | CC(=O)N1CCC[C@]12CC=CCCCC1(CCCC=CCCCOC(=O)N3CC[C@@](C(=O)N[C@@H](Cc4ccsc4)C(=O)N[C@@H](Cc4c[nH]c5ccccc45)C(=O)N[C@@H](Cc4c[nH]cn4)C(N)=O)(C3)NC(=O)[C@H](CC(N)=O)NC(=O)[C@H](Cc3ccccc3)NC(=O)[C@H](C)NC(=O)[C@H](C)NC(=O)[C@H](CC(=O)O)NC(=O)[C@H](CC(=O)O)NC1=O)NC(=O)[C@H](CC(C)(C)C)NC(=O)[C@H](CC(=O)O)NC2=O (stereo partly drawn) [I-792, Ac-PL3-Asp-Npg-B5-Asp-Asp-Ala-Ala-Phe-Asn-PyrS2-3Thi-Trp-His-NH2] | –
4 | – | – | 22.3 | – | – | – | 16 | 2.19 | 32 (≈ 62.7 µg/mL) | – | – | CC(=O)N1CCC[C@]12CC=CCCCC1(CCCC=CCCCOC(=O)N3CC[C@@](C(=O)N[C@@H](Cc4ccsc4)C(=O)N[C@@H](Cc4csc5ccccc45)C(=O)N[C@@H](CCC(N)=O)C(N)=O)(C3)NC(=O)[C@H](CC(N)=O)NC(=O)[C@H](Cc3ccccc3)NC(=O)[C@H](C)NC(=O)[C@H](C)NC(=O)[C@H](CCCNC(N)=O)NC(=O)[C@H](CC(=O)O)NC1=O)NC(=O)[C@H](CC(C)(C)C)NC(=O)[C@H](CC(=O)O)NC2=O (stereo partly drawn) [I-840, Ac-PL3-Asp-Npg-B5-Asp-Cit-Ala-Ala-Phe-Asn-PyrS2-3Thi-BztA-Gln-NH2] | –
5 | 2.075 | 50 (≈ 100 µg/mL) | – | – | – | 25.6 | 11 | – | – | 32.4 | 11 | CC(=O)N1CCC[C@]12CC=CCCCC1(CCCC=CCCCCOC(=O)N3CC[C@@](C(=O)N[C@@H](Cc4ccsc4)C(=O)N[C@@H](Cc4csc5ccccc45)C(=O)N[C@@H](CCC(N)=O)C(=O)N[C@H](C)C(N)=O)(C3)NC(=O)[C@H](CC(N)=O)NC(=O)[C@H](Cc3ccccc3)NC(=O)[C@H](C)NC(=O)[C@H](C)NC(=O)[C@H](CC(=O)O)NC(=O)[C@H](CC(=O)O)NC1=O)NC(=O)[C@H](CC(C)(C)C)NC(=O)[C@H](CC(=O)O)NC2=O (stereo partly drawn) [I-831, Ac-PL3-Asp-Npg-B5-Asp-Asp-Ala-Ala-Phe-Asn-PyrS3-3Thi-BztA-Gln-dAla-NH2] | –
